Experimental data taken from patent EP4707280A1, “1,4-CINEOLE DERIVATIVE AND INTERMEDIATE THEREOF, HERBICIDE CONTAINING SAID DERIVATIVE AS ACTIVE INGREDIENT, METHOD FOR USING HERBICIDE, AND METHOD FOR PREPARING AGROCHEMICAL COMPOSITION” (HOKKO CHEMICAL INDUSTRY CO., LTD., priority 2023, dated 2024).

How the values were obtained:
Format in all cases: in vivo
Echinochloa crus-galli [1] = test: Test Example 4: herbicidal effect test by stem and leaf treatment in upland field; settings: Echinochloa crus-galli; 120 g per 10 ares; sprayed seven days after sowing, upland soil; 14 days after application; read-out: weed inhibition rate
Digitaria ciliaris [2] = test: Test Example 7: herbicidal effect test by soil application in upland field (low dose); settings: Digitaria ciliaris, 7.5 g per 10 ares, sprayed one day after sowing, 14 days after application, read-out: weed inhibition rate
Outline: (§1)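 Low-dose soil treatment at 7.5 g a.i. per 10 a, applied as a diluted emulsifiable concentrate sprayed onto the soil surface one day after sowing in upland alluvial loam. Duplicate pots; percent weed inhibition is read 14 days after application.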

Echinochloa crus-galli [3] = test: as above; settings: Echinochloa crus-galli, 7.5 g per 10 ares, sprayed one day after sowing, 14 days after application, read-out: weed inhibition rate
Outline: as §1

Scirpus juncoides [4] = test: Test Example 2: herbicidal effect test by application during growth period of paddy rice; settings: Schoenoplectiella juncoides; 120 g per 10 ares; applied seven days after sowing, flooded pots; 14 days after application; read-out: weed inhibition rate
Outline: (§2)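 Weeds sown into puddled, flooded paddy soil received a post-emergence water application of emulsifiable concentrate at 120 g active ingredient per 10 ares, seven days after sowing. Herbicidal effect was rated 14 days later as inhibition (%).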

[5] = test system: Echinochloa crus-galli var. formosensis; test: as above; settings: Echinochloa crus-galli; 120 g per 10 ares; applied seven days after sowing, flooded pots; 14 days after application; read-out: weed inhibition rate
Outline: as §2

Scirpus juncoides [6] = test: Test Example 1: herbicidal effect test by soil application in paddy rice; settings: Schoenoplectiella juncoides, soil, 336 h; 120 g active ingredient per 10 ares; applied immediately after sowing, flooded pots; 14 days after application; read-out: weed inhibition rate
Outline: (§3)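 Flooded-pot paddy assay: sow at 0–1 cm, flood to about 3 cm, then apply diluted emulsifiable concentrate by dropper, 120 g a.i. per 10 ares; greenhouse-grown.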

[7] = test system: Echinochloa crus-galli var. formosensis; test: as above; settings: Echinochloa crus-galli, soil, 336 h; 120 g active ingredient per 10 ares; applied immediately after sowing, flooded pots; 14 days after application; read-out: weed inhibition rate
Outline: as §3

[8] = test system: Echinochloa crus-galli var. formosensis; test: Test Example 5: herbicidal effect test by soil application in paddy rice (low dose); settings: Echinochloa crus-galli, soil, 336 h; 7.5 g per 10 ares; applied immediately after sowing, flooded pots; 14 days after application; read-out: weed inhibition rate
Outline: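 Pots of puddled, fertilized paddy soil receive 30 seeds per species at 0–1 cm depth and are flooded to about 3 cm. The diluted emulsifiable concentrate is then dropped onto the water, delivering 7.5 g active ingredient per 10 ares. Greenhouse grown; herbicidal effect scored 14 days later, two replicates.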

Digitaria ciliaris [9] = test: Test Example 8: herbicidal effect test by stem and leaf treatment in upland field (low dose); settings: Digitaria ciliaris; 7.5 g per 10 ares; sprayed seven days after sowing, upland soil; 14 days after application; read-out: weed inhibition rate
Echinochloa crus-galli [10] = test: as above; settings: Echinochloa crus-galli; 7.5 g per 10 ares; sprayed seven days after sowing, upland soil; 14 days after application; read-out: weed inhibition rate
Digitaria ciliaris [11] = test: Test Example 3: herbicidal effect test by soil application in upland field; settings: Digitaria ciliaris, 120 g per 10 ares, sprayed one day after sowing, 14 days after application, read-out: weed inhibition rate
Outline: (§4)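 Weed inhibition (%) was assessed 14 days after treatment, in duplicate per concentration group. Seeds had been mixed into the upper 1 cm of upland alluvial loam, and the soil surface was sprayed one day later with the diluted emulsifiable concentrate at 120 g active ingredient per 10 ares.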

Echinochloa crus-galli [12] = test: as above; settings: Echinochloa crus-galli, 120 g per 10 ares, sprayed one day after sowing, 14 days after application, read-out: weed inhibition rate
Outline: as §4

Digitaria ciliaris [13] = test: Test Example 4: herbicidal effect test by stem and leaf treatment in upland field; settings: Digitaria ciliaris; 120 g per 10 ares; sprayed seven days after sowing, upland soil; 14 days after application; read-out: weed inhibition rate
[14] = test system: Echinochloa crus-galli var. formosensis; test: Test Example 6: herbicidal effect test by application during growth period of paddy rice (low dose); settings: Echinochloa crus-galli; 7.5 g per 10 ares; applied seven days after sowing, flooded pots; 14 days after application; read-out: weed inhibition rate
Outline: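 Formulated compound, diluted in water, was dropped onto flooded pots seven days post-sowing at 7.5 g a.i. per 10 ares. Seeds had been sown 0-1 cm deep in puddled paddy soil under ~3 cm water in a glass greenhouse. Inhibition (%) assessed at 14 days; duplicate pots.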

CC(C)[C@]12C[C@@H](OCc3c(F)cccc3F)[C@](C)(C[C@@H]1I)O2 [1-778, (1R,2S,4S,5R)-5-[(2,6-difluorophenyl)methoxy]-2-iodo-1-isopropyl-4-methyl-7-oxabicyclo[2.2.1]heptane]
≥ 80%: inhibition at 1200 g/ha (Echinochloa crus-galli [1]) | inhibition at 75 g/ha (Digitaria ciliaris [2]) | inhibition at 75 g/ha (Echinochloa crus-galli [3]) | inhibition at 1200 g/ha (Scirpus juncoides [4]) | inhibition at 1200 g/ha [5] | pest or weed control at 1200 g/ha (Scirpus juncoides [6]) | pest or weed control at 1200 g/ha [7] | inhibition at 75 g/ha [8] | inhibition at 75 g/ha (Digitaria ciliaris [9]) | inhibition at 75 g/ha (Echinochloa crus-galli [10]) | inhibition at 1200 g/ha (Digitaria ciliaris [11]) | inhibition at 1200 g/ha (Echinochloa crus-galli [12]) | inhibition at 1200 g/ha (Digitaria ciliaris [13]) | inhibition at 75 g/ha [14]

CC(C)C12CC(OCc3ccccc3Cl)C(C)(CC1I)O2 (stereo not shown) [1-1424, 5-[(2-chlorophenyl)methoxy]-2-iodo-1-isopropyl-4-methyl-7-oxabicyclo[2.2.1]heptane]
≥ 80%: inhibition at 1200 g/ha (Echinochloa crus-galli [1]) | inhibition at 75 g/ha (Digitaria ciliaris [2]) | inhibition at 75 g/ha (Echinochloa crus-galli [3]) | inhibition at 1200 g/ha (Scirpus juncoides [4]) | inhibition at 1200 g/ha [5] | pest or weed control at 1200 g/ha (Scirpus juncoides [6]) | pest or weed control at 1200 g/ha [7] | inhibition at 75 g/ha [8] | inhibition at 75 g/ha (Digitaria ciliaris [9]) | inhibition at 75 g/ha (Echinochloa crus-galli [10]) | inhibition at 1200 g/ha (Digitaria ciliaris [11]) | inhibition at 1200 g/ha (Echinochloa crus-galli [12]) | inhibition at 1200 g/ha (Digitaria ciliaris [13]) | inhibition at 75 g/ha [14]

CC#CCOC1CC2(C(C)C)OC1(C)CC2I (stereo not shown) [1-1402, 5-but-2-ynoxy-2-iodo-1-isopropyl-4-methyl-7-oxabicyclo[2.2.1]heptane]
≥ 80%: inhibition at 1200 g/ha (Echinochloa crus-galli [1]) | inhibition at 75 g/ha (Digitaria ciliaris [2]) | inhibition at 75 g/ha (Echinochloa crus-galli [3]) | inhibition at 1200 g/ha (Scirpus juncoides [4]) | inhibition at 1200 g/ha [5] | pest or weed control at 1200 g/ha (Scirpus juncoides [6]) | pest or weed control at 1200 g/ha [7] | inhibition at 75 g/ha [8] | inhibition at 75 g/ha (Digitaria ciliaris [9]) | inhibition at 75 g/ha (Echinochloa crus-galli [10]) | inhibition at 1200 g/ha (Digitaria ciliaris [11]) | inhibition at 1200 g/ha (Echinochloa crus-galli [12]) | inhibition at 1200 g/ha (Digitaria ciliaris [13]) | inhibition at 75 g/ha [14]

CC(C)C12CC(OCc3c(F)cccc3Cl)C(C)(CC1Cl)O2 (stereo not shown) [1-1315, 5-chloro-2-[(2-chloro-6-fluorophenyl)methoxy]-1-methyl-4-isopropyl-7-oxabicyclo[2.2.1]heptane]
≥ 80%: inhibition at 1200 g/ha (Echinochloa crus-galli [1]) | inhibition at 75 g/ha (Digitaria ciliaris [2]) | inhibition at 75 g/ha (Echinochloa crus-galli [3]) | inhibition at 1200 g/ha (Scirpus juncoides [4]) | inhibition at 1200 g/ha [5] | pest or weed control at 1200 g/ha (Scirpus juncoides [6]) | pest or weed control at 1200 g/ha [7] | inhibition at 75 g/ha [8] | inhibition at 75 g/ha (Digitaria ciliaris [9]) | inhibition at 75 g/ha (Echinochloa crus-galli [10]) | inhibition at 1200 g/ha (Digitaria ciliaris [11]) | inhibition at 1200 g/ha (Echinochloa crus-galli [12]) | inhibition at 1200 g/ha (Digitaria ciliaris [13]) | inhibition at 75 g/ha [14]

CC(C)[C@]12CC(OCc3c(Cl)cccc3Cl)[C@](C)(C[C@@H]1I)O2 (mixture of isomers) [1-779, (1R,2S,4S,SR)-5-[(2,6-dichlorophenyl)methoxy]-2-iodo-1-isopropyl-4-methyl-7-oxabicyclo[2.2.1]heptane]
≥ 80%: inhibition at 1200 g/ha (Echinochloa crus-galli [1]) | inhibition at 75 g/ha (Digitaria ciliaris [2]) | inhibition at 75 g/ha (Echinochloa crus-galli [3]) | inhibition at 1200 g/ha (Scirpus juncoides [4]) | inhibition at 1200 g/ha [5] | pest or weed control at 1200 g/ha (Scirpus juncoides [6]) | pest or weed control at 1200 g/ha [7] | inhibition at 75 g/ha [8] | inhibition at 75 g/ha (Digitaria ciliaris [9]) | inhibition at 75 g/ha (Echinochloa crus-galli [10]) | inhibition at 1200 g/ha (Digitaria ciliaris [11]) | inhibition at 1200 g/ha (Echinochloa crus-galli [12]) | inhibition at 1200 g/ha (Digitaria ciliaris [13]) | inhibition at 75 g/ha [14]

Cc1cccc(C)c1COC1CC2(C(C)C)OC1(C)CC2Cl (stereo not shown) [1-1610, 5-chloro-2-[(2,6-dimethylphenyl)methoxy]-1-methyl-4-isopropyl-7-oxabicyclo[2.2.1]heptane]
≥ 80%: inhibition at 1200 g/ha (Echinochloa crus-galli [1]) | inhibition at 75 g/ha (Digitaria ciliaris [2]) | inhibition at 75 g/ha (Echinochloa crus-galli [3]) | inhibition at 1200 g/ha (Scirpus juncoides [4]) | inhibition at 1200 g/ha [5] | pest or weed control at 1200 g/ha (Scirpus juncoides [6]) | pest or weed control at 1200 g/ha [7] | inhibition at 75 g/ha [8] | inhibition at 75 g/ha (Digitaria ciliaris [9]) | inhibition at 75 g/ha (Echinochloa crus-galli [10]) | inhibition at 1200 g/ha (Digitaria ciliaris [11]) | inhibition at 1200 g/ha (Echinochloa crus-galli [12]) | inhibition at 1200 g/ha (Digitaria ciliaris [13]) | inhibition at 75 g/ha [14]

CC(C)=CCOC1CC2(C(C)C)OC1(C)CC2I (stereo not shown) [1-1400, 5-iodo-1-methyl-2-(3-methylbut-2-enoxy)-4-isopropyl-7-oxabicyclo[2.2.1]heptane]
≥ 80%: inhibition at 1200 g/ha (Echinochloa crus-galli [1]) | inhibition at 75 g/ha (Digitaria ciliaris [2]) | inhibition at 75 g/ha (Echinochloa crus-galli [3]) | inhibition at 1200 g/ha (Scirpus juncoides [4]) | inhibition at 1200 g/ha [5] | pest or weed control at 1200 g/ha (Scirpus juncoides [6]) | pest or weed control at 1200 g/ha [7] | inhibition at 75 g/ha [8] | inhibition at 75 g/ha (Digitaria ciliaris [9]) | inhibition at 75 g/ha (Echinochloa crus-galli [10]) | inhibition at 1200 g/ha (Digitaria ciliaris [11]) | inhibition at 1200 g/ha (Echinochloa crus-galli [12]) | inhibition at 1200 g/ha (Digitaria ciliaris [13]) | inhibition at 75 g/ha [14]

CC(C)C12CC(OCc3c(F)cccc3Cl)C(C)(CC1I)O2 (stereo not shown) [1-1448, 5-[(2-chloro-6-fluoro-phenyl)methoxy]-2-iodo-1-isopropyl-4-methyl-7-oxabicyclo[2.2.1]heptane]
≥ 80%: inhibition at 1200 g/ha (Echinochloa crus-galli [1]) | inhibition at 75 g/ha (Digitaria ciliaris [2]) | inhibition at 75 g/ha (Echinochloa crus-galli [3]) | inhibition at 1200 g/ha (Scirpus juncoides [4]) | inhibition at 1200 g/ha [5] | pest or weed control at 1200 g/ha (Scirpus juncoides [6]) | pest or weed control at 1200 g/ha [7] | inhibition at 75 g/ha [8] | inhibition at 75 g/ha (Digitaria ciliaris [9]) | inhibition at 75 g/ha (Echinochloa crus-galli [10]) | inhibition at 1200 g/ha (Digitaria ciliaris [11]) | inhibition at 1200 g/ha (Echinochloa crus-galli [12]) | inhibition at 1200 g/ha (Digitaria ciliaris [13]) | inhibition at 75 g/ha [14]
